According to PubChem BioAssay AID1159605 (The Scripps Research Institute Molecular Screening Center, 2016):
Calls of active or inactive are those of the source.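 Rule for the calls: active = IC50 of 10 µM or lower; inactive = IC50 above 10 µM.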

Target: Mitogen-activated protein kinase kinase kinase 5 (Homo sapiens) (UniProt Q99683)
Assay: ASK1 kinase inhibitor potency, dose response, biochemical, AlphaScreen, MKK6 phosphorylation (AID 1159605);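 note: ASK1 phosphorylation of MKK6 substrate detected with anti-phospho-MKK6 antibody beads; inhibitors lower the luminescent signal by blocking MKK6 phosphorylation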
Details: AlphaScreen luminescence

Sequence of Mitogen-activated protein kinase kinase kinase 5 (Homo sapiens) (Q99683 whole entry, looked up): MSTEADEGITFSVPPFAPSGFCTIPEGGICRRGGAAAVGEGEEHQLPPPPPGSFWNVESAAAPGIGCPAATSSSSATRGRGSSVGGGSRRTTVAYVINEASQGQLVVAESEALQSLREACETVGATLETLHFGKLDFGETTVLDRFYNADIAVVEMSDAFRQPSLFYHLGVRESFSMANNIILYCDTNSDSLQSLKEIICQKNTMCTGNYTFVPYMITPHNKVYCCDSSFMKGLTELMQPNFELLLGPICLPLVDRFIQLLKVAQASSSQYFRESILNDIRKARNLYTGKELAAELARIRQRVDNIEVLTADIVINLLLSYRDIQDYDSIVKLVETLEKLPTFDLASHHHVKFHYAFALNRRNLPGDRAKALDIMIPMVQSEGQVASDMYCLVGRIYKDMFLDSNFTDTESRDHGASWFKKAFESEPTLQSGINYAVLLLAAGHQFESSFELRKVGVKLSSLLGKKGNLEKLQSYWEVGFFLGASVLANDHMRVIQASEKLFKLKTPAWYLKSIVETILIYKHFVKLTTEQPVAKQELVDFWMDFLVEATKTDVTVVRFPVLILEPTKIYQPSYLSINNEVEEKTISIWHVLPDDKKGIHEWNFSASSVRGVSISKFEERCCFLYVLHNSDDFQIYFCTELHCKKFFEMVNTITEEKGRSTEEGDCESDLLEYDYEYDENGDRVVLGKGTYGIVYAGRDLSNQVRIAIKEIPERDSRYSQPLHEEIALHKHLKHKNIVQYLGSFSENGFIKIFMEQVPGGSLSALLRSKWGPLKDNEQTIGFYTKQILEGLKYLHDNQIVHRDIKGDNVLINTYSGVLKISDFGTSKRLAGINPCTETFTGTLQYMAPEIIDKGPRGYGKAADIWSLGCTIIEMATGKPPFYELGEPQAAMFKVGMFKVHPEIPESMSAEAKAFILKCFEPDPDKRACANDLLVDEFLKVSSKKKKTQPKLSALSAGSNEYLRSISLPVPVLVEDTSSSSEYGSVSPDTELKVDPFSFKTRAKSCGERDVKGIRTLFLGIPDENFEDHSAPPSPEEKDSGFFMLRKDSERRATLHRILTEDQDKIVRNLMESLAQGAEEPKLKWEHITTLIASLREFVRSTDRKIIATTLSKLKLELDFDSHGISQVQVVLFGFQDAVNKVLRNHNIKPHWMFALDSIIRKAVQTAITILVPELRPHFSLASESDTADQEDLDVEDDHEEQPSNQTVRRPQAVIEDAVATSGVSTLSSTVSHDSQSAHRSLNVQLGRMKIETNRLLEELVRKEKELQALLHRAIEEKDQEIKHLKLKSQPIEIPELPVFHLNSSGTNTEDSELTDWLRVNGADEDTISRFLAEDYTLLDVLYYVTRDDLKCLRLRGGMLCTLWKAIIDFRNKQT

Row | Structure (SMILES) | IC50
1 | O=C(Nc1ccc(-c2ncnc3[nH]ccc23)cc1)C1COc2ccccc2O1 (configuration not stated) | > 19.2 µM (inactive)
2 | CN(C)c1cccc(Nc2nc(Nc3ccc(N4CCOCC4)cc3)c3[nH]cnc3n2)c1 | inactive
3 | COc1ccc(CCNc2nc(N3CCN(Cc4ccc5c(c4)OCO5)CC3)nc3c2ncn3C2CCCCC2)cc1 | > 22.5 µM (inactive)
4 | COc1cc2nc(Nc3ccc(N4CCOCC4)cc3)nc(NC3CC3)c2cc1OC | inactive
5 | COc1ccc(CCNc2nc(NC3CCN(Cc4ccccc4)CC3)nc3c2ncn3C2CCCCC2)cc1 | inactive
6 | Cc1cc(NCc2cccc(C(F)(F)F)c2)nc(Nc2cccc(N(C)C)c2)n1 | > 20.1 µM (inactive)
7 | CC(C)n1cnc2c(NC3CC3)nc(N3CCN(c4ccccn4)CC3)nc21 | inactive
8 | Cc1ccc(-c2ncn(-c3ccc(Nc4nccc(-c5cncc(N6CCOCC6)c5)n4)cc3)n2)cn1 | > 19.2 µM (inactive)
9 | c1cc(-n2cnc(N3CCOCC3)n2)ccc1Nc1ncc2ccc(-c3cn[nH]n3)cc2n1 | > 19.2 µM (inactive)
10 | CC(C)n1cnc2c(Nc3ccccc3)nc(Nc3ccc(N4CCOCC4)cc3)nc21 | inactive
11 | COc1ccc2c(c1)CC(C(=O)Nc1ccc(-c3cn[nH]c3)cc1OCCN(Cc1ccccc1)Cc1ccccc1)CO2 (configuration not stated) | > 19.2 µM (inactive)
12 | Fc1cc(-c2ccnc(Nc3ccc(N4CCOCC4)cc3)n2)cc(N2CCN(C3CC3)CC2)c1 | > 19.2 µM (inactive)
13 | O=C1CCCN1CCCNc1nc(Nc2ccc(-n3ccnc3)cc2)nc2c1ncn2-c1ccsc1 | > 19.9 µM (inactive)
14 | Oc1ccc(CCNc2ncnc3nc(N4CCN(Cc5ccc6c(c5)OCO6)CC4)[nH]c23)cc1 | > 16.9 µM (inactive)
15 | FC(F)(F)c1ccc(Cn2cnc3c(Nc4ccc5c(c4)OCO5)nc(Nc4ccccc4)nc32)cc1 | > 22 µM (inactive)
16 | Nc1cccc(-c2nc3ncnc(Nc4ccc(N5CCOCC5)cc4)c3[nH]2)c1 | > 18.2 µM (inactive)
17 | c1ccc(OCCNc2nc(Nc3ccc(N4CCOCC4)cc3)nc3c2ncn3C2CCCCC2)cc1 | 5.66 µM
18 | Cc1cnc(Nc2ccc(N3CCOCC3)cc2)nc1NCc1cccc(C(F)(F)F)c1 | 8.86 µM
19 | c1cc(-n2cnc3c(Nc4ccc5c(c4)OCO5)nc(Nc4ccc(N5CCOCC5)cc4)nc32)cs1 | 5.72 µM
20 | Fc1cnc(Nc2ccc(N3CCNCC3)cc2)cc1-n1cnc(Nc2ccccc2)n1 | > 19.2 µM (inactive)
21 | CN1CCN(c2nc(C3COc4ccccc4O3)nc3ccc(-c4cn[nH]c4)cc23)CC1 (configuration not stated) | > 19.2 µM (inactive)

Row | Structure (SMILES) | IC50
22 | CCN(CC)C(=O)C1CCCN(c2nc(Nc3ccc(N4CCOCC4)cc3)c3ncn(Cc4ccc(C(F)(F)F)cc4)c3n2)C1 (configuration not stated) | inactive
23 | COc1cc(NC(=O)c2cccc(-n3cc(NC(=O)Nc4c(C)cccc4Cl)cn3)c2)cc(OC)c1OC | > 19.2 µM (inactive)
24 | COc1cc2nc(Nc3cccc(N(C)C)c3)nc(NCCOc3ccccc3)c2cc1OC | > 20.4 µM (inactive)
25 | Cc1cc(Nc2ccc(N3CCOCC3)cc2)nc(Nc2ccccc2)n1 | inactive
26 | c1ccc(CCn2ncc(-c3ccnc(Nc4ccc(N5CCOCC5)cc4)c3)c2Nc2ccccc2)cc1 | > 19.2 µM (inactive)
27 | Cc1nc(C)n(-c2ccc(Nc3nccc(-c4cccc(-n5cncn5)c4)n3)cc2)n1 | > 19.2 µM (inactive)
28 | FC(F)(F)c1ccc(Cn2cnc3c(Nc4ccc(N5CCOCC5)cc4)nc(NC4CCN(Cc5ccccc5)CC4)nc32)cc1 | inactive
29 | Oc1ccc(CCNc2nc(NC3CCN(Cc4ccccc4)CC3)nc3c2ncn3Cc2ccc(C(F)(F)F)cc2)cc1 | inactive
30 | NC(=O)c1ccc(-c2nc(NCc3cccc(C(F)(F)F)c3)c3ncn(Cc4ccc(C(F)(F)F)cc4)c3n2)cc1 | > 17.3 µM (inactive)
31 | COc1cc(Nc2ccnc(Nc3cccc(N(C)C)c3)n2)cc(OC)c1OC | 6.84 µM
32 | Cc1ccc(-c2ncn(-c3ccc(Nc4nccc(-c5cncc6ccccc56)n4)cc3)n2)cn1 | > 19.2 µM (inactive)
33 | Nc1nc(Nc2ccc(N3CCOCC3)cc2)cc(Nc2ccc3c(c2)OCO3)n1 | > 16.8 µM (inactive)
34 | COc1c(-c2cnn(C)c2)ccc2cnc(Nc3ccc(-n4cnc(N5CCOCC5)n4)cc3)nc12 | > 19.2 µM (inactive)
35 | Cc1cnc(-c2cccc(N)c2)nc1Nc1ccc(N2CCOCC2)cc1 | inactive
36 | Cc1nc(C)n(-c2ccc(Nc3nccc(-c4cc(F)cc(-c5cn[nH]c5C)c4)n3)cc2)n1 | > 19.2 µM (inactive)
37 | Cn1cc(-c2ccc3cnc(Nc4ccc(-c5ccc(N6CCOCC6)nc5)cc4)nc3c2Cl)cn1 | > 19.2 µM (inactive)
38 | FC(F)(F)c1ccc(Cn2cnc3c(Nc4ccc5c(c4)OCO5)nc(NC4CCN(Cc5ccccc5)CC4)nc32)cc1 | > 20.5 µM (inactive)
39 | FC(F)(F)c1ccc(Cn2cnc3c(Nc4ccc(N5CCOCC5)cc4)nc(N4CCN(c5ccccn5)CC4)nc32)cc1 | > 20 µM (inactive)
40 | Cc1ccccc1-c1cscc1Nc1cnn(-c2cccc(C(=O)Nc3ccc(N4CCOCC4)cc3)c2)c1 | > 19.2 µM (inactive)
41 | FC(F)(F)c1ccc(Cn2cnc3c(NCc4ccccc4)nc(-c4ccc(N5CCOCC5)nc4)nc32)cc1 | > 19.9 µM (inactive)
42 | c1cc(Nc2ccc3c(c2)OCO3)nc(N2CCN(Cc3ccc4c(c3)OCO4)CC2)n1 | > 20.1 µM (inactive)
